Consider ten compounds from patent US6632816B1, “Aromatic derivatives as HIV aspartyl protease inhibitors” (Pharmacor Inc., priority 2002, dated 2003).

For this test, the target named is HIV protease (Human immunodeficiency virus type 1 group M subtype B, UniProt P04585). The test is described as follows: biochemical.
Source text: Enzymatic Assay for Determining the Inhibition Constant (Ki) of Synthetic Compounds Targeting the HIV Protease
This is a fluorometric assay based on the cleavage by protease of a substrate carrying a donor group (EDANS) and an acceptor group (DABCYL) on each side of the cleavage site, interacting together through fluorescence resonance energy transfer (FRET) as described by Matayoshi et al. (Science 247:954-954, 1990).
After calculation of Vo and Vi, the inhibition constant (Ki) of the compound is determined using the equation of Henderson: [formula]
where Vo=the enzyme's initial velocity
Vi=the enzyme velocity in the presence of the inhibitory compound,
[I]=inhibitor concentration, [S]=substrate concentration,
Km=Michaelis-Menten constant and Kiapp=apparent Ki
Graphs are traced and the Ki determined using GraphPad Prism software v.
A word on the Ki: it is a measure of affinity in units of concentration, obtained from inhibition or displacement. A low value points to a stronger hold on the target. For the compound `CC(C)CN([C@H](CO)CCCCNC(=O)[C@@H](NC(=O)c1ccccc1O)C(c1ccccc1)c1ccccc1)S(=O)(=O)c1ccc(N)cc1` [Example 104, (1S,5S)-N-(1-{5-[(4-Amino-benzenesulfonyl)-isobutyl-amino]-6-hydroxy-hexylcarbamoyl}-2,2-diphenyl-ethyl)-2-hydroxy-benzamide], the Ki is less than 3.8 nM.

For the compound `CC(C)CN([C@H](CO)CCCCNC(=O)[C@@H](NC(=O)c1cccc(O)c1)C(c1ccccc1)c1ccccc1)S(=O)(=O)c1ccc(N)cc1` [Example 105, (1S,5S)-N-(1-{5-[(4-Amino-benzenesulfonyl)-isobutyl-amino]-6-hydroxy-hexylcarbamoyl}-2,2-diphenyl-ethyl)-3-hydroxy-benzamide], the inhibition constant (Ki) was less than 3.8 nM.

As to `COc1cc(C(=O)N[C@H](C(=O)NCCCC[C@@H](CO)N(CC(C)C)S(=O)(=O)c2ccc(N)cc2)C(c2ccccc2)c2ccccc2)ccc1O` [Example 106, (1S,5S)-N-(1-{5-[(4-Amino-benzenesulfonyl)-isobutyl-amino]-6-hydroxy-hexylcarbamoyl}-2,2-diphenyl-ethyl)-4-hydroxy-3-methoxy-benzamide], the Ki was less than 3.8 nM.

As to `CC(C)CN([C@H](CO)CCCCNC(=O)[C@@H](NC(=O)c1ccc([N+](=O)[O-])c(O)c1)C(c1ccccc1)c1ccccc1)S(=O)(=O)c1ccc(N)cc1` [Example 107, (1S,5S)-N-(1-{5-[(4-Amino-benzenesulfonyl)-isobutyl-amino]-6-hydroxy-hexylcarbamoyl}-2,2-diphenyl-ethyl)-3-hydroxy-4-nitro-benzamide], the Ki was less than 3.8 nM.

`CC(C)CN([C@H](CO)CCCCNC(=O)[C@@H](NC(=O)c1ncccc1O)C(c1ccccc1)c1ccccc1)S(=O)(=O)c1ccc(N)cc1` [Example 108, (1S,5S)-3-Hydroxy-pyridine-2-carboxylic Acid-N-(1-{5-[(4-amino-benzenesulfonyl)-isobutyl-amino]-6-hydroxy-hexylcarbamoyl}-2,2-diphenyl-ethyl)-amide] showed a Ki of less than 3.8 nM.

Compound `CC(C)CN([C@H](CO)CCCCNC(=O)[C@@H](NC(=O)c1ccc(N)nc1)C(c1ccccc1)c1ccccc1)S(=O)(=O)c1ccc(N)cc1` [Example 109, (1S,5S)-6-Amino-N-(1-{5-[(4-amino-benzenesulfonyl)-isobutyl-amino]-6-hydroxy-hexylcarbamoyl}-2,2-diphenyl-ethyl)-nicotinamide] had a Ki of less than 3.8 nM.

For `CC(C)CN([C@H](CO)CCCCNC(=O)[C@@H](NC(=O)c1ccc(O)nc1)C(c1ccccc1)c1ccccc1)S(=O)(=O)c1ccc(N)cc1` [Example 110, (1S,5S)-N-(1-{5-[(4-Amino-benzenesulfonyl)-isobutyl-amino]-6-hydroxy-hexylcarbamoyl}-2,2-diphenyl-ethyl)-6-hydroxy-nicotinamide], the Ki was less than 3.8 nM.

On to `Cc1ncccc1C(=O)N[C@H](C(=O)NCCCC[C@@H](CO)N(CC(C)C)S(=O)(=O)c1ccc(N)cc1)C(c1ccccc1)c1ccccc1` [Example 111, (1S,5S)-N-(1-{5-[(4-Amino-benzenesulfonyl)-isobutyl-amino]-6-hydroxy-hexylcarbamoyl}-2,2-diphenyl-ethyl)-2-methyl-nicotinamide], for which the Ki is less than 3.8 nM.

In turn, `Cc1ccc(C(=O)N[C@H](C(=O)NCCCC[C@@H](CO)N(CC(C)C)S(=O)(=O)c2ccc(N)cc2)C(c2ccccc2)c2ccccc2)cn1` [Example 112, (1S,5S)-N-(1-{5-[(4-Amino-benzenesulfonyl)-isobutyl-amino]-6-hydroxy-hexylcarbamoyl}-2,2-diphenyl-ethyl)-6-methyl-nicotinamide] yielded an inhibition constant (Ki) of less than 3.8 nM.

In turn, `CC(C)CN([C@H](CO)CCCCNC(=O)[C@@H](N)Cc1ccc2ccccc2c1)S(=O)(=O)c1ccc(N)c(F)c1` [Example 113, (2S,5S)-2-Amino-N-{5-[(4-amino-3-fluoro-benzenesulfonyl)-isobutyl-amino]-6-hydroxy-hexyl}-3-naphthalen-2-yl-propionamide] gave a Ki of less than 3.8 nM.
